{"source": "patent US6733779B2", "about": "“Method of treating benign prostatic hyperplasia and other benign prostate conditions” (priority 1999, dated 2004)", "key": {"[1]": {"assay": "Side effects observed in the treated patients (informal trials)", "protocol": "The treatment method involves essentially two periods: an initial treatment, and a sustaining treatment. First, in the initial treatment the patients orally administrate an initial dosage about 40 mg of 13-cis-retinoic acid daily for a period from about ten days to about twenty days. Thereafter, the patients orally administrate a sustaining dosage about 40 mg of 13-cis-retinoic acid about every five to seven days in a sustaining period. Typically, the sustaining period is about one year. However, it can be extended longer if extended maintenance is needed.\nIn the initial treatment, 40 mg of 13-cis-retinoic acid can be administrated in a single dose, or divided doses. […] The patients can either take one 40 mg capsule, or take two 20 mg capsules daily. The same applies to the dosage in the sustaining treatment. For convenience, the patients can take one 40 mg dose every five to seven days.\nThe initial dosage of about 40 mg 13-cis-retinoic acid daily is determined based on average men's body weight of about 160 lbs, i.e. at about 0.25 mg/lb of body weight. For patients who weigh substantially above or less than the average body weight, the dosage described above can be adjusted accordingly. The same principle applies to the sustaining dosage."}, "[2]": {"test_system": "prostate specific antigen (PSA)", "assay": "Blood PSA level of patients treated orally with Accutane", "format": "in vivo, human"}, "[3]": {"test_system": "benign prostatic hyperplasia", "assay": "Clinical treatment of patients with benign prostatic hyperplasia / benign prostate conditions: symptoms and prostate size", "format": "in vivo, human"}, "[4]": {"settings": "patients of the informal trials"}}}
{"compound": "CC1=C(/C=C/C(C)=C/C=C/C(C)=C\\C(=O)O)C(C)(C)CCC1", "note": "[Accutane, 13-cis retinoic acid]", "values": [{"measurement": "blood chemistries", "setting": "[1]; Example 1 patient, on sustaining dosage of 40 mg every 5 days", "value": "remained normal"}, {"measurement": "adverse side effects", "setting": "[1]; Example 1 patient, soreness subsided slowly after the sustaining dose was instituted", "value": "drying of lips and some musculo-skeletal soreness at sites of old injuries to the fingers and neck"}, {"measurement": "adverse side effects", "setting": "[1]; Example 2 patient", "value": "No adverse side effects were observed"}, {"measurement": "serious adverse side effects or contra-indications", "setting": "[1]; [4]", "value": "no serious adverse side effects or contra-indications of any kind were observed"}, {"measurement": "PSA after treatment", "setting": "[2]; Example 1 patient, PSA 4 before, 40 mg orally for 14 days, then 40 mg every 5 days for about one year", "value": "less than one"}, {"measurement": "PSA after treatment", "setting": "[2]; Example 2 patient, PSA 3 before, after 6 months, 40 mg for 14 days, then 40 mg every 5 days", "value": "less than one"}, {"measurement": "PSA after treatment", "setting": "[2]; Example 3 patient, chronic posttraumatic prostatitis, PSA 5 before, 40 mg daily for 14 days, then 40 mg every 5 days", "value": "less than 1"}, {"measurement": "PSA after treatment", "setting": "[2]; Example 4 patient, PSA 4 before, within 6 months, 40 mg per day for 14 days, then 40 mg every 5 days", "value": "less than 1"}, {"measurement": "symptoms", "setting": "[3]; Example 1 patient, prostatic enlargement and attenuated urine stream, 40 mg for 14 days, then 40 mg every 5 days", "value": "improved steadily"}, {"measurement": "palpable size of prostate", "setting": "[3]; Example 1 patient, 40 mg for 14 days, then 40 mg every 5 days", "value": "decreased in palpable size"}, {"measurement": "symptoms", "setting": "[3]; Example 2 patient, prostatic enlargement, decreasing urine flow, urgency, nocturia", "value": "steady improvement in symptoms"}, {"measurement": "symptoms", "setting": "[3]; Example 3 patient, chronic prostatitis, after the initial treatment, remained so during the sustaining period", "value": "rapidly became symptom free"}, {"measurement": "symptoms", "setting": "[3]; Example 4 patient, enlarged prostate, urinary tenesmus", "value": "readily improved"}, {"measurement": "prostate enlargement", "setting": "[3]; approximately twelve patients, by examination and the patients' own anecdotal comments", "value": "a reduction in prostate enlargement was confirmed"}, {"measurement": "worsening of condition (PSA or hyperplasia), progression to malignancy", "setting": "[3]; [4]", "value": "none of the conditions of these patients worsened"}]}
